The values below come from patent US20080306114A1, “Human G Protein-Coupled Receptor and Modulators Thereof for the Treatment of Hyperglycemia and Related Disorders” (Arena Pharmaceuticals, Inc, priority 2004, published 2008).

Assay [1] has as its system Mock transfected HEK293 cells (empty pCMV vector). The assay is described as follows: Whole-cell cyclase Flashplate cAMP assay, Mock transfected HEK293 cells. It counts as cell-based, human. The following applies: serially diluted compound, 1 hour. The procedure: (§1) HEK 293 cells obtained from ATCC were used for all assays. Culture media consisted of […] of DMEM supplemented with 10% fetal bovine serum (Gibco, BRL). Cyclic AMP measurements were determined using the Adenylyl Cyclase Activation Flashplate® Assay with direct cAMP [^125I] Detection system.
(§2) HEK 293 cells (5×10^5 cells/ml) were plated in 15 cm dishes. […] Briefly, transfection mixture consisting of OptiMEM (Gibco, BRL) and FuGENE 6 reagent were mixed together and allow to incubate for 5 minutes at room temperature. Transfection reagent was added drop-wise into a separate tube containing 2 μg of endogenous human RUP43 receptor plasmid (Tranfected) or 2 μg of empty pCMV vector (Mock) and allowed to incubate for 15 minutes at room temperature. The DNA/transfection mixture was added drop-wise to each perspective plate and incubated over night in a humidified incubator maintained at 37° C., 95/5% […]. The next day, the media was replaced with normal growth media and the cells were incubated over night.
(§3) On Day 3, the cells were rinsed once with PBS and dislodged from the plate using a nonenzymatic cell-dissociation buffer (Gibco, BRL) and resuspended in assay stimulation Buffer® Perkin Elmer) at a density of 2×10^6 cell/ml for measurement of cAMP. […] At the end of the 2 hour incubation, the plate was aspirated and cAMP levels were determined using Wallac 1450 microbeta counter.
(In general: Changes in cAMP serve as a functional read-out for many G protein-coupled receptors.)

Assay [2] concerns the target T1, endogenous human RUP43 (Homo sapiens, UniProt Q8TDU6).
T1 sequence (Q8TDU6 1-330): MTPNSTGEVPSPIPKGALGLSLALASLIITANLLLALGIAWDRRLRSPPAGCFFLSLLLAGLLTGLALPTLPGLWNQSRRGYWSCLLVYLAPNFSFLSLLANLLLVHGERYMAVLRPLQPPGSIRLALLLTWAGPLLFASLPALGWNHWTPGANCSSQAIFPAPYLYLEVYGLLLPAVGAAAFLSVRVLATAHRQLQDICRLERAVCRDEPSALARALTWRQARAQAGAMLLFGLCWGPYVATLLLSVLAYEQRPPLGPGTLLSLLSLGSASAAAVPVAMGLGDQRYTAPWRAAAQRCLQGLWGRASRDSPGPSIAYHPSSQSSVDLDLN
The assay is described as follows: Whole-cell cyclase Flashplate cAMP assay, RUP43-transfected HEK293 cells. The assay is classed as cell-based. Details: expressed in transfected cells; host or cells: HEK293 cells (ATCC), transient transfection with FuGENE 6. The protocol:
as §1, §2, §3

Assay [3] relates to mouse 3T3L1 adipocytes. Description: In vitro glucose uptake assay in 3T3L1 adipocytes. It counts as cell-based. The protocol: (§4) The in vitro glucose uptake assay was carried out as described here.
(§5) KRPH buffer: 5 mM NaHPO4, pH 7.4 (Make KRPH buffer fresh each time) • 20 mM Hepes, pH 7.4 • 1 mM MgSO4 • 1 mM CaCl2 • 136 mM NaCl • 4.7 mM KCl • 1% BSA
(§6) For each well, add 1 μl containing 1 μCi [^3H]-2-DOG and 1 μl cold stock 2-DOG and 2 ml KRPH.
(§7) Use CytoB at 10 μM final to block carrier-mediated uptake. Also use this concentration at the end to stop the reaction. The stop buffer is PBS plus 10 μm CytoB (“PBS”).
(§8) 1. Starve cells for at least 2 hrs.
(§9) 2. Wash cells 2 times with KRPH buffer and add 2 mls of KRPH to the well.
(§10) 3. Treat cells with insulin and/or with test compound, or with vehicle (Control), for 20 min.
(§11) 4. After 20 min, aspirate the buffer from the well and immediately add 1 ml of KRPH buffer plus 2-DOG. For CytoB-treated cells, add CytoB 5 min before uptake assay.
5. After 4 min, aspirate the buffer from the well and add 3 mls of cold PBS. After completing the assay, wash the cells in each well 2 times with cold PBS. […]
Differentiated mouse 3T3L1 adipocytes were treated with 50 μM Compound 2 for various times, after which glucose uptake was determined according to Example 17.
Differentiated mouse 3T3L1 adipocytes were treated with (“Compound 2”) or without (“Control”) Compound 2 in serum-free medium for 3 hr. […] After treatment with insulin, glucose uptake was determined according to Example 17.

Assay [4] deals with primary human adipocytes. The assay is described as follows: In vitro glucose uptake assay in primary human adipocytes. The assay is classed as cell-based. The following applies: 50 μM for 3 hr. The protocol:
as §4, §5, §6, §7, §8, §9, §10, §11
(§12) 5. After 4 min, aspirate the buffer from the well and add 3 mls of cold PBS. After completing the assay, wash the cells in each well 2 times with cold PBS. Aspirate the Stop PBS completely, and then add 700 ul of 1% Triton X. Place in 37° C. incubator for 30 min.
(§13) 6. Count CPM in total lysate. Calculate CPM/well.
(§14) Subtract the CytoB value from the value obtained for each of cells treated with insulin and/or with test compound and cells treated with vehicle (Control).
Human preadipocytes (Cambrex) were differentiated into adipocytes. The differentiated primary human adipocytes were treated with or without 50 μM Compound 2 for 3 hr in serum-free medium. The human adipocytes were then washed with fresh KRPH buffer twice and treated with or without 100 nM insulin for 20 min. After treatment with or without insulin, glucose uptake was determined according to Example 17.

Assay [5] concerns primary human skeletal muscle cells. The assay is described as follows: In vitro glucose uptake assay in primary human skeletal muscle cells. The assay is classed as cell-based. The protocol:
as §4, §5, §6, §7, §8, §9, §10, §11, §12, §13, §14
Primary human skeletal muscle cells obtained from Cambrex were grown to 50% confluence and then differentiated on culture with inducing medium for 5 to 7 days. The differentiated primary human skeletal muscle cells were then transferred to growth medium for 7 to 10 days.
Differentiated human skeletal muscle cells were treated with or without various concentrations of Compound 2 in serum-free medium for 3 hr. After treatment with or without Compound 2, the cells were washed twice with fresh KRPH buffer. […] After treatment with or without insulin, glucose uptake was determined according to Example 17. […]
Differentiated human skeletal muscle cells were treated with 50 μM Compound 2 for various time periods. At the end of each treatment period, glucose uptake was determined according to Example 17.

Assay [6] deals with rat L6 myoblast cells. Description: In vitro glucose uptake assay in L6 myoblast cells. It counts as cell-based. The protocol:
as §4, §5, §6, §7, §8, §9, §10, §11, §12, §13, §14
Rat skeletal muscle L6 myoblast cells were obtained from ATCC and grown in 24-well plates to confluence.
Confluent L6 cells were treated with or without various concentrations of Compound 2 in serum-free medium for 3 hr. The L6 cells were then washed twice with KRPH buffer. L6 cells which had been treated with Compound 2 were incubated with KRPH buffer for 20 min; L6 cells which had not been treated with Compound 2 were treated with 10 nM or 100 nM insulin for 20 min. After treatment with or without insulin, glucose uptake was determined according to Example 17. […] As skeletal muscle cells are responsible for 80% of glucose disposal in vivo, the results obtained indicate that RUP43 agonist is an attractive candidate for providing better glucose disposal in vivo than does insulin.
Confluent L6 myoblast cells were treated with 50 μM Compound 2 for various times. At the end of each treatment period, glucose uptake was determined according to Example 17.
Confluent rat L6 myoblast cells were treated with or without 50 μM Compound 2 for 3 hr in serum-free medium. The L6 cells were then washed twice with fresh KRPH buffer. The L6 cells were then treated with or without 100 nM insulin for 20 min. After treatment with or without insulin, glucose uptake was determined according to Example 17. […] The results further indicate that RUP43 agonist can increase insulin efficacy, thereby lowering the concentration of insulin required to achieve maximal glucose uptake. […]

For assay [7], the target named is T1, endogenous human RUP43. The assay is described as follows: Melanophore assay. It counts as cell-based. Further details: expressed in transfected cells; host or cells: melanophores (skin cells of lower vertebrates), transfected by electroporation. From the text: Melanophores are skin cells found in lower vertebrates. They contain pigmented organelles termed melanosomes. Melanophores are able to redistribute these melanosomes along a microtubule network upon G-protein coupled receptor (GPCR) activation. The result of this pigment movement is an apparent lightening or darkening of the cells. In melanophores, the decreased levels of intracellular cAMP that result from activation of a […] receptor cause melanosomes to migrate to the center of the cell, resulting in a dramatic lightening in color. If cAMP levels are then raised, following activation of a Gs-coupled receptor, the melanosomes are re-dispersed and the cells appear dark again. The increased levels of diacylglycerol that result from activation of Gq-coupled receptors can also induce this re-dispersion. In addition, the technology is also suited to the study of certain receptor tyrosine kinases. The response of the melanophores takes place within minutes of receptor activation and results in a simple, robust color change. The response can be easily detected using a conventional absorbance microplate reader or a modest video imaging system. Unlike other skin cells, the melanophores derive from the neural crest and appear to express a full complement of signaling proteins. In particular, the cells express an extremely wide range of G-proteins and so are able to functionally express almost all GPCRs.
Melanophores can be utilized to identify compounds, including natural ligands, against GPCRs. This method can be conducted by introducing test cells of a pigment cell line capable of dispersing or aggregating their pigment in response to a specific stimulus and expressing an exogenous clone coding for the GCPR. A stimulant, e.g., melatonin, sets an initial state of pigment disposition wherein the pigment is aggregated within the test cells if activation of the GPCR induces pigment dispersion. […] The test cells are then contacted with chemical compounds, and it is determined whether the pigment disposition in the cells changed from the initial state of pigment disposition. […]

Setting [8] is: various concentrations 3 hr vs 10 nM or 100 nM insulin 20 min.

Structures are written as SMILES. “Also recorded” adds a separate entry of the source.

Take `CN(C(=O)c1csc(C2CCN(C(=O)Cc3ccccc3Cl)CC2)n1)c1c2c(nn1C)CCCC2` [Compound 1, 2-{1-[2-(2-Chloro-phenyl)-acetyl]-piperidin-4-yl}-thiazole-4-carboxylicacid methyl-(2-methyl-4,5,6,7-tetrahydro-2H-indazol-3-yl)-amide]: the “intracellular cAMP” value in assay [1] is “not in Mock transfected cells”; in assay [2] (HEK293 cells transfected with endogenous human RUP43, serially diluted compound, 1 hour) it was “in a dose dependent manner, led to an increase in intracellular cAMP”. In assay [2] (whole-cell cAMP, HEK293 transfected with endogenous human RUP43), the “agonist of RUP43 (identification)” value was “agonist of RUP43”.

As usually defined, the EC50 is the concentration at which the effect is half-maximal. As for `O=C(Cc1ccccc1Cl)N1CCC(c2nc(C(=O)N3CCCc4ccccc43)cs2)CC1` [Compound 2, 2-(2-Chloro-phenyl)-1-{4-[4-(3,4-dihydro-2H-quinoline-1-carbonyl)-thiazol-2-yl]-piperidin-1-yl}-ethanone], the glucose uptake entry is on record as “stimulates glucose uptake” in assay [3] (50 μM Compound 2 for various times, no insulin); “stimulates glucose uptake” in assay [4] (without insulin); “efficacious at stimulating glucose uptake; also recorded: stimulates glucose uptake” in assay [5] (various concentrations for 3 hr, absence of insulin); “stimulates glucose uptake” in assay [6] (various concentrations for 3 hr, no insulin). In addition, the insulin-stimulated glucose uptake result in assay [3] (compound 3 hr in serum-free medium, then various concentrations of insulin 20 min) was “enhances insulin-stimulated glucose uptake”; in assay [4] (then 100 nM insulin 20 min) it was “enhanced insulin-stimulated glucose uptake”; in assay [6] (50 μM for 3 hr, then 100 nM insulin 20 min), “enhances insulin-stimulated glucose uptake”. The “level of stimulated glucose uptake compared with insulin” value in assay [4] (absence of insulin vs 100 nM insulin) was “comparable to the level of insulin-stimulated glucose uptake”. Moreover, in assay [5] (50 μM for various time periods), the “time course of glucose uptake” value is “rapid stimulation of glucose uptake”. The “glucose uptake compared with insulin” value is on record as “more effectively than insulin” in assay [5] (setting [8]) and “greater glucose uptake in rat L6 myoblast than did insulin” in assay [6] (setting [8]). In addition, the “time to stimulation of glucose uptake” value in assay [6] (50 μM for various times) was at most 20 min. Moreover, the “agonist of RUP43 (identification)” value in assay [7] (melanophore technology) is “agonist of endogenous human RUP43”. The EC50 in assay [7] (melanophores transfected with endogenous human RUP43, 100 uM-51.2 pM, one hour) was found to be 212 nM. Further, the Curve height entry in assay [7] (percent control response vs positive control wells (200) and negative control wells (100)) is on record as “approximately 92 % of control”.
